The record followed here is patent publication US6511978B1, “Pyrrole derivatives useful for farnesyl transferase inhibitors and their preparations” (LG Life Sciences, Ltd., priority 1999, dated 2003).

In assay [1] the target is T1, Ras farnesyl transferase (Homo sapiens, UniProt P49354+P49356).
T1 construct: made in house
The assay can be described thus: Ras farnesyl transferase enzyme inhibition, K-Ras substrate (H-Ras fused with polybasic lysine domain of K-Ras). To be noted: K-Ras substrate (fused protein of H-Ras with polybasic lysine domain of K-Ras); recombinant farnesyl transferase. Type of assay: biochemical. The source says:
(§1) In the present experiment, the improved Pompliano's method (see: Pompliano et al., Biochemistry, 31, 3800, 1992) was applied. Specifically, Ras farnesyl transferase produced by genetic recombination techniques was used, and fused protein of H-Ras(H-Ras-CVLS) substituted with polybasic lysine domain at C-terminus of K-Ras (see: Korean Patent Appln. No. 97-14409) was used as a substrate after it had been purified according to the known method(see, Chung et al., Biochimica et Biophysica Acta, 1129, 278, 1992).
(§2) The enzyme reaction was performed in 50 μl of 50 mM Sodium HEPES buffer solution containing 25 mM of potassium chloride, 25 mM of magnesium chloride, 10 mM of DTT and 50 μM of zinc chloride. 1.5 μM of Ras substrate protein, 0.15 μM of tritium-farnesylpyrophosphate and 4.5 nM of farnesyl transferase were used. More specifically, in the initial step, farnesyl transferase was added to the above buffer solution, reaction was maintained for 30 minutes at 37° C. and then the reaction was stopped by adding 1 ml of ethanol solution containing 1M HCl. The formed precipitates were adsorbed to GF/B filter using Hopper harvestor(Hopper #FH 225V) for filter-binding, washed with ethanol, and then radioactivity of the dried filter was measured using LKB β counter. Enzyme titer was measured in the unsaturated state of substrate where the concentration of Ras substrate protein and farnesyl transferase have quantitative relationship. The compound according to the present invention dissolved in dimethyl sulfoxide(DMSO) was added to the reaction solution in an amount of less than 5% of the total reaction solution, and then the enzyme inhibitory activity thereof was measured. The enzyme inhibitory activity was represented by percentage of the amount of farnesyl incorporated into the Ras substrate protein in the presence of the test compound to that in the absence of the test compound. IC50 of the test compound was defined as the concentration at which 50% of the enzyme activity was inhibited. To evaluate the selective enzyme inhibitory activity of the compound according to the present invention, inhibitory activity on geranylgeranyl transferase was measured. Geranylgeranyl transferase was purified from bovine brain according to the modified Schaber's method(Schaber et al., J. Biol. Chem. 265, 14701, 1990), and substantially the same experimental procedure as that for farnesyl transferase was performed on geranylgeranyl pyrophosphate and Ras-CVIL substrate protein.

Assay [2] deals with T1, Ras farnesyl transferase. The assay can be described thus: Ras farnesyl transferase enzyme inhibition, H-Ras substrate. Type of assay: biochemical. To be noted: H-Ras substrate protein; recombinant farnesyl transferase; 30 minutes at 37° C.
From the text: as §1, §2

Assay [3] deals with T2, Ras farnesyl transferase (Rattus norvegicus, UniProt Q02293+Q04631).
T2 construct: endogenous in cells; host or cells: Rat2 fibroblasts transformed with C-Harvey-Ras or with the H-Ras/K-Ras polybasic-domain fusion
The assay is described as follows: In vivo (intracellular) Ras farnesylation inhibition in Rat2 cell line expressing C-Harvey-Ras. In kind it is cell-based. The following applies: Rat2 cells expressing C-Harvey-Ras; concentration inhibiting 50% of farnesyl binding; read-out: H-Ras CIC50. Here is the method:
(§3) In the present experiment, Rat2 cell line which expresses C-Harvey-Ras protein having transforming activity and Rat2 cell line(Korean patent application No. 97-14409) which is transformed with fused protein of H-Ras substituted with polybasic lysine domain at C-terminus of K-Ras were used. The experiment was performed by the modified Declue's method(Declue. J. E. et al., Cancer Research, 51, 712, 1991) as follows.
(§4) 3×10^5 cells of transformed Rat2 fibroblast cell line were sprayed on 60 mm cell cultivation dish and cultivated for 48 hours in a cell incubator at 37° C. and after 50% or more of density was reached, it was treated with the test compounds. The compound according to the present invention dissolved in dimethylsulfoxide(DMSO) was used. 1% concentration of dimethylsulfoxide was used in both control and test groups. After 4 hours from the treatment with the compound, methionine labeled with 150 μCi of radioactive isotope [^35S] per 1 ml of medium was added and after cultivating for 20 hours, the cells were washed with physiological saline water. The cells were lysed using 1 ml of cold cell lysis buffer solution(50 mM of Sodium HEPES buffer solution containing 5 mM of magnesium chloride, 1 mM of DTT, 1% NP 40, 1 mM of EDTA, 1 mM of PMSF, 2 μM of leupeptin, 2 μM of pepstatin A and 2 μM of antipain) and the supernatant wherein the cells were lysed was obtained by high-velocity centrifugation of 12,000 g×5 minutes. The amount of radioisotope in the supernatant was measured and standardized to obtain a quantitative result in immunoprecipitation reaction and then, Y13-259, a monoclonal antiboby specifically binding to Ras protein(see: Furth, M. E. et al., J. Virol, 43, 294, 1982) was added and reacted for 15 hours at 4° C. Protein A(combined with goat anti-murine immunoglobulin antibody)-agarose suspension was added to the solution and reacted for 1 hour at 4° C. and then, to remove the unspecific binding product, immunoprecipitates were washed with a buffer solution (50 mM Tris chloride buffer solution containing 50 mM of sodium chloride, 0.5% of sodium dioxycholate, 0.5% of NP 40 and 0.1% of SDS). The precipitates were added to a buffer solution for electrophoresis and boiled and then, electrophoresis was performed using 13.5% of SDS polyacrylamide gel. After electrophoresis, the gel was fixed and dried. Then, the gel was exposed to X-ray film, developed and printed. From the result of the experiment, intensities of band of protein combined with or without farnesyl of Ras protein was measured, and the concentration of the test compound inhibiting 50% of farnesyl binding was defined as CIC50, an in vivo Ras farnesyl transferase inhibitory activity. IC50 means the data from Experimental 1 and CIC50 means the data from Experimental 2.

Assay [4] deals with T2, Ras farnesyl transferase. The assay can be described thus: In vivo (intracellular) Ras farnesylation inhibition in Rat2 cell line transformed with H-Ras fused with polybasic lysine domain of K-Ras. In kind it is cell-based. To be noted: Rat2 cells transformed with H-Ras/K-Ras polybasic domain fused protein; concentration inhibiting 50% of farnesyl binding; read-out: K-Ras CIC50. Here is the method: as §3, §4

With “1-[1-(3-benzyloxypropyl)-2-methyl-1H-imidazol-5-ylmethyl]-3-[N-(2-methoxyethyl)-N-methyl]carbamoyl-4-(naphthalen-1-yl)-1H-pyrrole [Example 34]”, the IC50 at Ras farnesyl transferase [1] was below 4.7 nM; at Ras farnesyl transferase [2] it was below 4 nM; on Ras farnesyl transferase [3], above 12.5 nM; at Ras farnesyl transferase [4] it was above 10000 nM.

Consider `COCCN(C)C(=O)c1cn(Cc2cncn2CCCOCc2ccccc2)cc1-c1cccc2ccccc12` [Example 1, 1-[1-(3-benzyloxypropyl)-1H-imidazol-5-yl]methyl-3-[N-(2-methoxyethyl)-N-methyl]carbamoyl-4-(naphthalen-1-yl)-1H-pyrrole], for which the IC50 at Ras farnesyl transferase [1] was below 10 nM; on Ras farnesyl transferase [2] it was below 10 nM; at Ras farnesyl transferase [3] it was below 25 nM; at Ras farnesyl transferase [4] it was 10000 to 50000 nM.

As for `O=C(c1cn(Cc2cncn2CCCOCc2ccccc2)cc1-c1cccc2ccccc12)N1CCOCC1` [Example 2, 1-[1-(3-benzyloxypropyl)-1H-imidazol-5-yl]methyl-3-(morpholin-4-yl)carbonyl-4-(naphthalen-1-yl)-1H-pyrrole], the IC50 on Ras farnesyl transferase [1] is below 10 nM; on Ras farnesyl transferase [2], below 10 nM; on Ras farnesyl transferase [3] it was below 25 nM; at Ras farnesyl transferase [4], 10000 to 50000 nM.

In the case of `CN1CCN(C(=O)c2cn(Cc3cncn3CCCOCc3ccccc3)cc2-c2cccc3ccccc23)CC1` [Example 3, 1-[1-(3-benzyloxypropyl)-1H-imidazol-5-yl]methyl-3-(4-methylpiperazin-1-yl)carbonyl-4-(naphthalen-1-yl)-1H-pyrrole], the IC50 on Ras farnesyl transferase [1] is below 10 nM; at Ras farnesyl transferase [2], below 10 nM; on Ras farnesyl transferase [3] it was below 25 nM; on Ras farnesyl transferase [4], 10000 to 50000 nM.

Turning to `COCCN(C)C(=O)c1cn(Cc2cncn2CCCOc2ccccc2)cc1-c1cccc2ccccc12` [Example 4, 3-[N-(2-methoxyethyl)-N-methyl]carbamoyl-4-(naphthalen-1-yl)-1-[1-(3-phenoxypropyl)-1H-imidazol-5-yl]methyl-1H-pyrrole], the IC50 on Ras farnesyl transferase [1] was below 10 nM; on Ras farnesyl transferase [2], below 10 nM; at Ras farnesyl transferase [3] it was below 25 nM; on Ras farnesyl transferase [4], 10000 to 100000 nM.

With `COCCN(C)C(=O)c1cn(Cc2cncn2CCCSc2ccccc2)cc1-c1cccc2ccccc12` [Example 5, 3-[N-(2-methoxyethyl)-N-methyl]carbamoyl-4-(naphthalen-1-yl)-1-[1-(3-thiophenoxypropyl)-1H-imidazol-5-yl]methyl-1H-pyrrole], the IC50 was below 10 nM at Ras farnesyl transferase [1], below 10 nM on Ras farnesyl transferase [2], below 25 nM at Ras farnesyl transferase [3] and 10000 to 50000 nM at Ras farnesyl transferase [4].

For the compound `O=C(c1cn(Cc2cncn2CCCOc2ccccc2)cc1-c1cccc2ccccc12)N1CCOCC1` [Example 6, 3-(morpholin-4-yl)carbonyl-4-(naphthalen-1-yl)-1-[1-(3-phenoxypropyl)-1H-imidazol-5-yl]methyl-1H-pyrrole], the IC50 was below 10 nM on Ras farnesyl transferase [1], below 10 nM at Ras farnesyl transferase [2], below 25 nM on Ras farnesyl transferase [3] and 10000 to 50000 nM at Ras farnesyl transferase [4].

For the compound `CN1CCN(C(=O)c2cn(Cc3cncn3CCCOc3ccccc3)cc2-c2cccc3ccccc23)CC1` [Example 7, 3-(4-methylpiperazin-1-yl)carbonyl-4-(naphthalen-1-yl)-1-[1-(3-phenoxypropyl)-1H-imidazol-5-yl]methyl-1H-pyrrole], the IC50 was below 10 nM on Ras farnesyl transferase [1], below 10 nM at Ras farnesyl transferase [2], below 25 nM at Ras farnesyl transferase [3] and 10000 to 50000 nM at Ras farnesyl transferase [4].

In the case of `CCSCCCn1cncc1Cn1cc(C(=O)N(C)CCOC)c(-c2cccc3ccccc23)c1` [Example 8, 3-[N-(2-methoxyethyl)-N-methyl]carbamoyl-4-(naphthalen-1-yl)-1-[1-(3-thioethoxypropyl)-1H-imidazol-5-yl]methyl-1H-pyrrole], the IC50 was below 10 nM on Ras farnesyl transferase [1], below 10 nM at Ras farnesyl transferase [2], above 25 nM at Ras farnesyl transferase [3] and 10000 to 50000 nM at Ras farnesyl transferase [4].

On to `COCCN(C)C(=O)c1cn(Cc2cncn2CCCN2CCOCC2)cc1-c1cccc2ccccc12` [Example 9, 3-[N-(2-methoxyethyl)-N-methyl]carbamoyl-1-{1-[3-(morpholin-4-yl)propyl]-1H-imidazol-5-yl}methyl-4-(naphthalen-1-yl)-1H-pyrrole], for which the IC50 at Ras farnesyl transferase [1] was below 10 nM; at Ras farnesyl transferase [2] it was below 10 nM; at Ras farnesyl transferase [3] it was below 25 nM; on Ras farnesyl transferase [4], 10000 to 50000 nM.

For `COCCN(C)C(=O)c1cn(Cc2cncn2CCc2cccs2)cc1-c1cccc2ccccc12` [Example 10, 3-[N-(2-methoxyethyl)-N-methyl]carbamoyl-4-(naphthalen-1-yl)-1-{1-[2-(thiophen-2-yl)ethyl]-1H-imidazol-5-yl}methyl-1H-pyrrole], the IC50 at Ras farnesyl transferase [1] was below 100 nM; at Ras farnesyl transferase [2], below 10 nM; at Ras farnesyl transferase [3] it was above 25 nM; on Ras farnesyl transferase [4], 10000 to 50000 nM.

With `CN1CCN(C(=O)c2cn(Cc3cncn3CCc3cccs3)cc2-c2cccc3ccccc23)CC1` [Example 11, 3-(4-methylpiperazin-1-yl)carbonyl-4-(naphthalen-1-yl)-1-{1-[2-(thiophen-2-yl)ethyl]-1H-imidazol-5-yl}methyl-1H-pyrrole], the IC50 was below 100 nM at Ras farnesyl transferase [1], below 10 nM at Ras farnesyl transferase [2], above 25 nM at Ras farnesyl transferase [3] and 10000 to 50000 nM at Ras farnesyl transferase [4].

For the compound `CN1CCN(C(=O)c2cn(Cc3cncn3Cc3ccco3)cc2-c2cccc3ccccc23)CC1` [Example 12, 1-[1-(furan-2-yl)methyl-1H-imidazol-5-yl]methyl-3-(4-methylpiperazin-1-yl)carbonyl-4-(naphthalen-1-yl)-1H-pyrrole], the IC50 at Ras farnesyl transferase [1] was below 100 nM; at Ras farnesyl transferase [2], below 10 nM; at Ras farnesyl transferase [3] it was above 25 nM; at Ras farnesyl transferase [4], 10000 to 50000 nM.

As to `COCCN(C)C(=O)c1cn(Cc2cncn2C2CCN(Cc3ccccc3)CC2)cc1-c1cccc2ccccc12` [Example 13, 1-[1-(1-benzylpiperidin-4-yl)-1H-imidazol-5-yl]methyl-3-[N-(2-methoxyethyl)-N-methyl]carbamoyl-4-(naphthalen-1-yl)-1H-pyrrole], the IC50 was below 10 nM at Ras farnesyl transferase [1], below 10 nM at Ras farnesyl transferase [2], below 25 nM at Ras farnesyl transferase [3] and 10000 to 50000 nM on Ras farnesyl transferase [4].
